Where two headings read alike, the source gives them in different places.
Assays:
[1] = target: T1, rabbit muscle lactate dehydrogenase (LDH) (Oryctolagus cuniculus, UniProt P13491); assay: continuous variation method on microtiter plate, step concentration gradients; assay type: biochemical
T1 construct: the enzyme rabbit muscle lactate dehydrogenase (LDH); from tissue; host or cells: rabbit muscle
Text: Determination of the mechanism of inhibition by the inhibitor oxalate with respect to the substrate NAD^+ against the enzyme rabbit muscle lactate dehydrogenase (LDH) using a microtiter plate to generate individual step concentration gradients was attempted. FIG. 47 is a graph showing the results of the experiment. An attempt to determine the mechanism of inhibition by the inhibitor oxalate with respect to the substrate lactate against the enzyme rabbit muscle LDH using a microtiter plate to generate individual step concentration gradients was attempted. FIG. 48 is a graph showing the results of this experiment.

P. falciparum LDH = P. falciparum LDH (Plasmodium falciparum, UniProt Q27743); assay: fluorescence-coupled LDH enzyme assay on microfluidics system, continuously variable concentration gradient, fit to Equation 4; assay type: biochemical
P. falciparum LDH, sequence (Q27743 whole entry): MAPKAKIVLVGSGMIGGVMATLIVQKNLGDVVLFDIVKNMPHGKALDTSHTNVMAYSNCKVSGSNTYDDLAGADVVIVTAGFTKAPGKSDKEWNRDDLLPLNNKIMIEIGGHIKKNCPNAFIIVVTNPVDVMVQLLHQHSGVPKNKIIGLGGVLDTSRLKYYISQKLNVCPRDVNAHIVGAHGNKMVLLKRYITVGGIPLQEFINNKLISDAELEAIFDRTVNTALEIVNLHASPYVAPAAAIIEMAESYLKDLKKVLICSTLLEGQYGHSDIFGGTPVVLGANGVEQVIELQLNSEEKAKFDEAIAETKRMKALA
Text: A fluorescence-coupled enzyme assay was developed using a microfluidics system described herein for creating a continuously variable concentration gradient to monitor the reduction of NAD^+ by the enzyme LDH to give a fluorescent end product. This system was then adapted to measure potency and determine mechanism of inhibition by various inhibitors of LDH.
One of the products of the reaction in the assay, NADH, is coupled to Thermus thermophilus NADH oxidase to generate H2O2, which in turn is coupled to horseradish peroxidase which reacts with […] and amplex red (Molecular Probes, Inc., Eugene, Oreg., U.S.A.) to give the fluorescent product resorufin. […]
The novel data analysis techniques described herein for determining the mechanism of inhibition of an inhibitor (or mechanism of activation of an activator) are applied to the data produced from the microfluidics system. The titration of the enzyme with a continuous linear variation of inhibitor and substrate from zero to a pre-determined finite concentration yields a characteristic rate profile that is defined by the specific type of interaction of the inhibitor and enzyme with respect to the substrate. […]
The titration of LDH with a linear gradient of NAD^+ was performed on the microfluidics system described herein with the change in relative fluorescence intensity monitored under initial rate conditions. […]

LDH = details: cited from earlier work

Row | SMILES | mechanism of inhibition ([1]; with respect to NAD+, ambiguous) | mechanism of inhibition ([1]; with respect to lactate, not certain) | mechanism of inhibition (P. falciparum LDH; with respect to substrate NAD+, continuous gradient) | mechanism of inhibition (LDH; with respect to NAD+) | mechanism of inhibition (LDH; with respect to lactate) | Km (P. falciparum LDH; titration of LDH with linear gradient of NAD+, initial rate conditions, read-out: Km (Michaelis constant)) [µM]
1 | O=C(O)C(=O)O [oxalate] | uncompetitive inhibitor | competitive inhibitor | uncompetitive inhibition | uncompetitive | competitive inhibitor | 
2 | NC(=O)c1ccc[n+]([C@@H]2O[C@H](COP(=O)([O-])OP(=O)(O)OC[C@H]3O[C@@H](n4cnc5c(N)ncnc54)[C@H](O)[C@@H]3O)[C@@H](O)[C@H]2O)c1 [NAD^+] |  |  |  |  |  | 54 ± 2

Source: patent publication US7897330B2, “Methods for characterizing enzyme inhibitors” (AB Sciex, LLC, priority 2005, dated 2011)
